Reference: patent US6300112A, “β-xylosidase, nucleotide sequence encoding it, and use thereof” (Danisco Ingredients A.S (Danisco A/S), priority 1995, dated 2001)

Key:
[1] = biological target: T1, Aspergillus niger β-xylosidase I (X-I, xylD), SEQ ID NO. 1 (Aspergillus niger, UniProt O00089); experiment: Inhibition of β-xylosidase X-I by xylose; assay type: biochemical; conditions: β-xylosidase X-I of the invention; read-out: inhibition Ki (mM xylosc)
T1 construct: Mono Q peak I
Procedure: (§1) Table A summarises the specificity pattern of two β-xylosidases X-I and X-II of the invention--presumably differing only in their glycosylation pattern, not in their amino acid sequence--and of the β-xylosidase reported by Rodionova et al., and their inhibition by xylose.
(§2) DEAE-Sephadex A-50 was equilibrated in 50 mM sodium acetate buffer pH 5.0 and was added to the culture filtrate. After 30-60 minutes of stirring at 4° C., the DEAE-Sephadex together with the culture filtrate were passed through a funnel with a glass filter holder and the DEAE-Sephadex A-50 was transferred to a column. […] Fractions containing β-xylosidase activity, as was detected using the chromogenic substrate 4-methylumbelliferyl-β-D-xyloside (detects β-xylosidases and endo-xylanases) (Sigma #M7008), were pooled and desalted by dialysis against Millipore water and subsequently dialysed against 20 mM piperazine-HCl buffer pH 5.0. […] The specific activity of both β-xylosidase I and II towards the artificial substrate PNP-X was determined as described by Rodionova et al., 1983, to be respectively 60.2 and 60.9 U/mg protein. In addition the activity against PNP-β-D-glucopyranoside (Sigma #N7006) was determined to be 0.2 and 0.3 U/mg, against PNP-β-D-galactopyranoside (Sigma #N1252) 0.0 and 0.0 U/mg and against PNP-β-L-arabinofuranoside(Sigma #N3641) 2.8 and 3.4 U/mg respectively for β-xylosidase I and II.

[2] = biological target: T2, Aspergillus niger β-xylosidase II (X-II, xylD), SEQ ID NO. 1 (Aspergillus niger, UniProt O00089); experiment: Inhibition of β-xylosidase X-II by xylose; assay type: biochemical; conditions: β-xylosidase X-II of the invention; read-out: inhibition Ki (mM xylosc)
T2 construct: Mono Q peak II
T2 sequence (O00089 27-804): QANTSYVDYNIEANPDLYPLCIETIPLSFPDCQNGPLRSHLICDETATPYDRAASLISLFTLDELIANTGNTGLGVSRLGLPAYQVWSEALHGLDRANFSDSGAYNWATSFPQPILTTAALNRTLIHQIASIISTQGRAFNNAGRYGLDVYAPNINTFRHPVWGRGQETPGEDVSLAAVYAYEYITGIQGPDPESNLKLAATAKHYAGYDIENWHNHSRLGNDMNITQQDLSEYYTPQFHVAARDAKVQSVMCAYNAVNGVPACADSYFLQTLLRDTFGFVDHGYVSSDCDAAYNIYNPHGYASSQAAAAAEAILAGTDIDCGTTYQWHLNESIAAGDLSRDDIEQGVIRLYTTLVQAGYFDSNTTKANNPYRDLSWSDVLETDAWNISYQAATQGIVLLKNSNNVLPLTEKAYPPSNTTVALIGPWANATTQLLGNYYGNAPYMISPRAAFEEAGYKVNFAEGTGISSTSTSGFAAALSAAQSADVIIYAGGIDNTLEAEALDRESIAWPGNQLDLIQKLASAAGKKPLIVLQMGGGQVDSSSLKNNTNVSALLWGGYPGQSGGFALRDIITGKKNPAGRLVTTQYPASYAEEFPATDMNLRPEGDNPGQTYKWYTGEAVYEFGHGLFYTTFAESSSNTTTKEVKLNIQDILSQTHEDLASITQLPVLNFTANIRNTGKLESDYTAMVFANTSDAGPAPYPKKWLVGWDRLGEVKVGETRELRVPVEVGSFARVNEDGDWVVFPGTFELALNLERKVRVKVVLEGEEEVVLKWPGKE
Procedure: as §1, §2

[3] = biological target: Aspergillus niger β-xylosidase according to Rodionova et al. (1983); conditions: β-xyl (Rodionova), comparison enzyme; read-out: inhibition Ki (mM xylosc); cited from earlier work

T1 sequence (O00089 27-804): as above

**Q.** For xylose, which Ki [1] is on record?
**A.** Its Ki is 9.8 mM.

**Q.** And the Ki [2]?
**A.** The Ki was 13.2 mM.

**Q.** And the Ki [3]?
**A.** Its Ki is 2.9 mM.
